From ChEMBL document CHEMBL3507680, “University of Dundee, Gates Library screen for HepG2 cell viability”

Test: Human HepG2 cell viability assay in 384 well format
Type: toxicity, cell-based
Set-up: dose 125 nL, time 70.5 hour; cytotoxicity at 70.5 h: concentration not given beside the values
Conditions: HepG2 cells, read-out: Inhibition

Q: Which cytotoxicity at 70.5 h does the source give for `O=C(c1cccnc1)N1CCCC1c1nc(O)cc(-c2ccccn2)n1` (stereo not given) here?
A: Its cytotoxicity at 70.5 h is -6.66%.

Q: With `Oc1nc(N2CCCC2)nc2c1CCN(Cc1cccnc1)CC2` as the compound, how does the cytotoxicity at 70.5 h read?
A: Its cytotoxicity at 70.5 h is -5.83%.

Q: For `CN(Cc1ccc(F)cc1)CC1(O)CCN(C(=O)c2ccncc2)C1` (stereo not given), which cytotoxicity at 70.5 h is on record?
A: The cytotoxicity at 70.5 h was -5.43%.

Q: For `Cc1noc(C)c1-c1cc(CC2CCN(C(=O)c3cc[nH]n3)C2)ncn1` (stereo not given), which cytotoxicity at 70.5 h is on record?
A: Its cytotoxicity at 70.5 h is -0.894%.

Q: With `CC(=O)Nc1nc(C2CCN(C(=O)c3cncs3)CC2)cs1` as the compound, how does the cytotoxicity at 70.5 h read?
A: Its cytotoxicity at 70.5 h is 11.2%.

Q: For `COCC(=O)N1CCC(Cc2nccnc2-c2c(C)n[nH]c2C)C1` (stereo not given), which cytotoxicity at 70.5 h is on record?
A: Its cytotoxicity at 70.5 h is 12.4%.

Q: For `CN1CCC(c2cccc(Cc3ccccc3)n2)CC1`, which cytotoxicity at 70.5 h is on record?
A: The cytotoxicity at 70.5 h was 3.18%.

Q: For `CN1CCCC1c1cccc(Cc2ccc(F)cc2)n1` (stereo not given), which cytotoxicity at 70.5 h is on record?
A: Its cytotoxicity at 70.5 h is 17%.

Q: For `CNC(=O)CCc1cc(C)nc(C2CCCCN2)n1` (stereo not given), which cytotoxicity at 70.5 h is on record?
A: The cytotoxicity at 70.5 h was -4.98%.

Q: For `O=C(c1ccc(F)cc1)N1CCOC(c2nc(-c3ncccn3)no2)C1` (stereo not given), which cytotoxicity at 70.5 h is on record?
A: The cytotoxicity at 70.5 h was -5.53%.

Q: For `Nc1nc(C2CCN(C(=O)c3cnccn3)CC2)cs1`, which cytotoxicity at 70.5 h is on record?
A: Its cytotoxicity at 70.5 h is 15.4%.

Q: Which cytotoxicity at 70.5 h does the source give for `Cc1cccc(Nc2nccnc2C2CCCN2CC(N)=O)n1` (stereo not given) here?
A: The cytotoxicity at 70.5 h was -2.88%.

Q: Which cytotoxicity at 70.5 h does the source give for `NC(=O)C1(c2cnccn2)CCCN1Cc1ccncc1` (stereo not given) here?
A: Its cytotoxicity at 70.5 h is -0.768%.

Q: For `Cc1cc(C)nc(Nc2cccc(C3CCCN(S(C)(=O)=O)C3)n2)n1` (stereo not given), which cytotoxicity at 70.5 h is on record?
A: Its cytotoxicity at 70.5 h is 46.8%.

Q: Which cytotoxicity at 70.5 h does the source give for `Cc1cc(-c2ccc(C(=O)O)cc2)nc(C2CCN(C(C)C)CC2)n1` here?
A: Its cytotoxicity at 70.5 h is 0.538%.

Q: Which cytotoxicity at 70.5 h does the source give for `O=S(=O)(N1CCOCC1)N1CCC(Oc2cnccn2)CC1` here?
A: Its cytotoxicity at 70.5 h is 0.596%.

Q: With `CN1CCCCC[C@@H]2[C@@H]1[C@H](c1ccccc1)CN2C(=O)c1ccccn1` as the compound, how does the cytotoxicity at 70.5 h read?
A: The cytotoxicity at 70.5 h was -1.6%.

Q: Which cytotoxicity at 70.5 h does the source give for `Cn1ccc(C(=O)N2CCOC(c3ccc(C(N)=O)cn3)C2)n1` (stereo not given) here?
A: Its cytotoxicity at 70.5 h is 0.762%.

Q: With `CN1CC(c2cc(O)nc(NCc3ccccc3Cl)n2)CC1=O` (stereo not given) as the compound, how does the cytotoxicity at 70.5 h read?
A: Its cytotoxicity at 70.5 h is -2.82%.

Q: For `CC(=O)N1CCCC1c1nc(C)cc(-c2ccc(F)cc2)n1` (stereo not given), which cytotoxicity at 70.5 h is on record?
A: The cytotoxicity at 70.5 h was -1.51%.

Q: With `Cn1nc(C2CN(C(=O)c3ccncc3)C2)c2nccnc21` as the compound, how does the cytotoxicity at 70.5 h read?
A: Its cytotoxicity at 70.5 h is 13.9%.

Q: With `CC(=O)N1CCC(c2nccnc2-c2ccc(C(=O)O)cc2)CC1` as the compound, how does the cytotoxicity at 70.5 h read?
A: The cytotoxicity at 70.5 h was 20%.

Q: For `COc1ccc(CN(C)[C@@H]2CN(C(=O)c3ccccc3)C[C@H]2O)cc1`, which cytotoxicity at 70.5 h is on record?
A: Its cytotoxicity at 70.5 h is -2.29%.

Q: For `CCCN(C(=O)c1ccncc1)c1nc2c(s1)CCc1c-2cnn1C`, which cytotoxicity at 70.5 h is on record?
A: Its cytotoxicity at 70.5 h is 18.2%.

Q: With `COCCN(C(=O)c1cnccn1)c1nc2c(s1)CCc1c-2cnn1C` as the compound, how does the cytotoxicity at 70.5 h read?
A: Its cytotoxicity at 70.5 h is 7%.

Q: For `CCCn1cc(CN2CCCC2c2nccc(CN(C)C)n2)cn1` (stereo not given), which cytotoxicity at 70.5 h is on record?
A: Its cytotoxicity at 70.5 h is 21.3%.

Q: With `Cc1nc2c(c(=O)[nH]1)CCN(C(=O)c1cccc3nccnc13)C2` as the compound, how does the cytotoxicity at 70.5 h read?
A: The cytotoxicity at 70.5 h was 0.0996%.

Q: For `O=C(c1cccnc1)N1CCc2c(nc(N3CCCC3)[nH]c2=O)C1`, which cytotoxicity at 70.5 h is on record?
A: The cytotoxicity at 70.5 h was -4.95%.

Q: For `O=C(c1ccco1)N1CCC(n2nc(-c3cccs3)ccc2=O)CC1`, which cytotoxicity at 70.5 h is on record?
A: The cytotoxicity at 70.5 h was -5.47%.

Q: Which cytotoxicity at 70.5 h does the source give for `O=C(c1ccco1)N1CCC(n2nc(-c3ccco3)ccc2=O)CC1` here?
A: The cytotoxicity at 70.5 h was -3.82%.

Q: For `O=C(C1CCCCC1)N1CCC(n2nc(-c3ccco3)ccc2=O)CC1`, which cytotoxicity at 70.5 h is on record?
A: Its cytotoxicity at 70.5 h is -0.841%.

Q: With `Cc1nc(O)c2nnn(C[C@H]3CCCN3C(=O)c3ccccc3F)c2n1` as the compound, how does the cytotoxicity at 70.5 h read?
A: Its cytotoxicity at 70.5 h is -0.74%.

Q: Which cytotoxicity at 70.5 h does the source give for `O=C(O)CCc1cccc(C2CCCN2Cc2cccc(Cl)c2)n1` (stereo not given) here?
A: Its cytotoxicity at 70.5 h is -0.284%.

Q: With `CN1CCC(c2cccc(CCC(=O)NCC(N)=O)n2)CC1` as the compound, how does the cytotoxicity at 70.5 h read?
A: The cytotoxicity at 70.5 h was -5.22%.

Q: For `Cn1cc(C(=O)N2CCCC(c3ccncc3)C2)cn1` (stereo not given), which cytotoxicity at 70.5 h is on record?
A: The cytotoxicity at 70.5 h was -7.32%.

Q: For `CN1CCCC[C@@H]2[C@H]1[C@@H](c1ccccc1)CCN2C(=O)c1ccccn1`, which cytotoxicity at 70.5 h is on record?
A: Its cytotoxicity at 70.5 h is -9.11%.

Q: Which cytotoxicity at 70.5 h does the source give for `CCCC(=O)NCCc1cc(N2CCN(C(C)=O)CC2)nc(C2CC2)n1` here?
A: The cytotoxicity at 70.5 h was -6.31%.

Q: With `CNC(=O)C1(c2cnccn2)CCCN1C(=O)c1ccccc1C` (stereo not given) as the compound, how does the cytotoxicity at 70.5 h read?
A: The cytotoxicity at 70.5 h was 15.3%.

Q: Which cytotoxicity at 70.5 h does the source give for `Cc1nnsc1C(=O)N1CC[C@H](c2ccccc2)[C@@H]2[C@H]1CCCCN2C` here?
A: The cytotoxicity at 70.5 h was -3.09%.

Q: For `Cc1cc(C(=O)N2CCCC2c2nc(C)cc(O)n2)on1` (stereo not given), which cytotoxicity at 70.5 h is on record?
A: Its cytotoxicity at 70.5 h is -8.09%.

Q: For `CCc1c(C)nc2cc(C3CCN(Cc4cccc(F)c4)C3)nn2c1O` (stereo not given), which cytotoxicity at 70.5 h is on record?
A: The cytotoxicity at 70.5 h was -7.92%.

Q: For `CCc1c(C)nc2cc(C3CCN(Cc4cccnc4)C3)nn2c1O` (stereo not given), which cytotoxicity at 70.5 h is on record?
A: The cytotoxicity at 70.5 h was -5.28%.

Q: For `Cc1n[nH]cc1CNCC1(c2ccccc2Cl)CCOCC1`, which cytotoxicity at 70.5 h is on record?
A: Its cytotoxicity at 70.5 h is -4.88%.

Q: Which cytotoxicity at 70.5 h does the source give for `CCCN(CC)Cn1ncc2cn(-c3ccccc3)nc2c1=O` here?
A: Its cytotoxicity at 70.5 h is -2.92%.

Q: Which cytotoxicity at 70.5 h does the source give for `c1cnc(Nc2cncc(C3CCCN3)n2)cn1` (stereo not given) here?
A: The cytotoxicity at 70.5 h was -3.08%.

Q: Which cytotoxicity at 70.5 h does the source give for `CN(C)c1ncc(-c2cccc(C(N)=O)c2)c(C2CNCCO2)n1` (stereo not given) here?
A: Its cytotoxicity at 70.5 h is -1.28%.

Q: For `COc1ccc(-c2cnc(N(C)C)nc2C2CNCCO2)cc1` (stereo not given), which cytotoxicity at 70.5 h is on record?
A: The cytotoxicity at 70.5 h was -4.32%.

Q: With `CN(C)c1ncc(-c2ccc(F)cc2)c(C2CNCCO2)n1` (stereo not given) as the compound, how does the cytotoxicity at 70.5 h read?
A: The cytotoxicity at 70.5 h was -2.95%.

Q: Which cytotoxicity at 70.5 h does the source give for `Cc1noc2nc(C3CCN(CC4CCCCC4)CC3)cc(C(F)F)c12` here?
A: Its cytotoxicity at 70.5 h is 1.17%.

Q: For `c1nc(CCC2CCCCN2)cc(N2CCCC2)n1` (stereo not given), which cytotoxicity at 70.5 h is on record?
A: The cytotoxicity at 70.5 h was 1.23%.

Q: With `c1nc(CCC2CCCN2)cc(N2CCCCCC2)n1` (stereo not given) as the compound, how does the cytotoxicity at 70.5 h read?
A: Its cytotoxicity at 70.5 h is 0.142%.

Q: With `COc1ccc(CN(Cc2ccco2)Cc2[nH]cnc2C)c(OC)c1` as the compound, how does the cytotoxicity at 70.5 h read?
A: Its cytotoxicity at 70.5 h is -8.31%.

Q: For `COc1cccc(CN(Cc2ccco2)Cc2cnc(C)n2C)c1`, which cytotoxicity at 70.5 h is on record?
A: The cytotoxicity at 70.5 h was 3.46%.

Q: Which cytotoxicity at 70.5 h does the source give for `COc1ncc(CN2C[C@@H]3CC[C@@](O)(c4ccc(C)cn4)[C@@H]3C2)cn1` here?
A: The cytotoxicity at 70.5 h was 2.96%.

Q: For `c1cc2nccc(CC3CCCN(Cc4c[nH]cn4)CC3)c2cn1` (stereo not given), which cytotoxicity at 70.5 h is on record?
A: The cytotoxicity at 70.5 h was -0.459%.
